This is an account of results in patent US20170114128A1, “USE OF TGF-BETA ANTAGONISTS OF TREAT TYPE-2 DIABETES” (ALBERT EINSTEIN COLLEGE OF MEDICINE, INC., priority 2014, published 2017).

Data set [1] concerns hypothalamic NF-κB signaling components. The experiment in a line: Western blots of hypothalamic NF-κB signaling components after third-ventricle TGF-β1. The class given is in vivo, mice. On the procedure:
Induction of hypothalamic NF-κB activation by TGF-β: TGF-β is often appreciated for anti-inflammatory feature in immune response, but, depending on physiological context and particularly in pathological conditions, TGF-β can be inflammatory (28)—although it is atypical and many details are still unclear. Here, because NF-κB has been known to atypically mediate hypothalamic inflammation in obesity or aging (12-14,18-20,23-27), it was analyzed if NF-κB signaling components were different in the hypothalamus of mice with third-ventricle injection of TGF-β vs. vehicle. […] First, since IκBα loss is the specific step that immediately liberates cytoplasmic NF-κB for nuclear translocation, and NF-κB subunit RelA in the nucleus undergoes phosphorylation, RelA phosphorylation was measured in mice injected with TGF-β1 or vehicle. […] Second, it was evaluated if TGF-β1-triggered NF-κB activation could be involved in HFD-induced hypothalamic inflammation. By employing heterogeneous Tgfb1 knockout (Tgfb1 +/−) mice, whether haplodeficiency of Tgfb1 in this mouse model could affect the induction of hypothalamic inflammation by HFD feeding was examined To do so, adult Tgfb1+/− mice and littermate WT controls were subjected to HFD feeding for three weeks, and chow feeding was included to provide as dietary control. Indeed, hypothalamic Tgfb1 mRNA in chow-fed Tgfb1+/− mice dropped by ˜50% compared to chow-fed WT (FIG. 4b), which was consistent with the literature (35). […] Using these hypothalamic samples, we examined mRNA levels of a list of inflammation-related molecules including TNFα, IL-6, SOCS3, TLR4, PTP1B, PKCλ and PKCι. […] Therefore, brain TGF-β excess plays a role in inducing diet-induced hypothalamic inflammation.
Thus, while kinase (e.g., IKK)-induced IκBα phosphorylation is a crucial, rapid signaling reaction in classical inflammation, this process is not primarily critical in TGF-β1-induced hypothalamic inflammation.
To further assess this point, it was asked if the effects of brain TGF-β excess could be impaired by ablation of a signaling component, such as toll-like receptor-4 (TLR4) or myeloid differentiation primary response gene 88 (MyD88), because they employ kinase signaling to induce IκBα phosphorylation and thus NF-κB activation. […]
Protein, mRNA and peptide analyses. […] Quantification of Western blots was processed with Image J. Total RNA was extracted from hypothalamic tissue using TRIzol® (Invitrogen), and cDNA was synthesized using M-MLV RT System (Promega). Using SYBR® Green PCR Master Mix (Applied Biosystems), expression levels of target genes were analyzed via PCR amplification and quantification. […] Serum and CSF TGF-β content were measured using TGF-β ELISA kit (R&D Systems).
In general terms: Immunoblotting shows a protein as a band on a membrane.

A short description of data set [2]: TGF-β1 concentrations in CSF and blood after third-ventricle injection. The class given is in vivo, mice. On the procedure:
Brain TGF-β excess impairs glucose tolerance: To study the metabolic effects of brain TGF-β excess, a pharmacological approach was first used by which TGF-β was delivered into the hypothalamic third ventricle of normal C57BL/6 mice via pre-implanted cannula. To optimize the dosage, different doses of TGF-β1 (0, 0.5, 1.0, and 4.0 ng) were injected, and TGF-β1 concentrations measured in the CSF at various time points post-injection. […] Based on this condition, overnight-fasted mice were given intra-third ventricle injections of TGF-β1 in these doses, one injection at night after food was removed, and the second injection in the following morning at 4 hours prior to glucose tolerance test (GTT). […] In sum, a pharmacological induction of brain TGF-β excess can acutely cause pre-diabetic changes including glucose intolerance and insulin resistance.
Protein, mRNA and peptide analyses. Hypothalami were isolated as previously described (14). Tissue lysis, SDS/PAGE and Western blotting were performed as previously described (19). Primary antibodies in Western blots included anti-IκBα (Santa Cruz, #SC847, 1:500), anti-p-TAK1 (Cell Signaling, #4531, 1:1000), anti-p-IκBα (Cell Signaling, #2859, 1:1000), anti-RelA (Cell Signaling, #3039, 1:1000), anti-p-RelA (Cell Signaling, #4764, 1:1000), and anti-β-actin (Cell Signaling, #4967S, 1:1000), and secondary antibodies were HRP-conjugated anti-rabbit or goat antibody (Pierce, 1:2000). Quantification of Western blots was processed with Image J. Total RNA was extracted from hypothalamic tissue using TRIzol® (Invitrogen), and cDNA was synthesized using M-MLV RT System (Promega). Using SYBR® Green PCR Master Mix (Applied Biosystems), expression levels of target genes were analyzed via PCR amplification and quantification. GAPDH or TBP mRNA levels were used for normalization. […] Serum and CSF TGF-β content were measured using TGF-β ELISA kit (R&D Systems).

Setting [3] is: third-ventricle injection vs vehicle.

In the case of “TGF-β1: transforming growth factor-β1 (Sigma), cytokine dissolved in artificial cerebrospinal fluid for third-ventricle injection”, the “hypothalamic TAK1 phosphorylation” value in data set [1] (mouse, in vivo) was “did not lead to hypothalamic TAK1 phosphorylation”. In data set [1] (normalized by IκBα protein levels), the “phosphorylated levels of IκBα” value is recorded as “did not change”. Also, in data set [1] (setting [3]), the “hypothalamic IκBα protein levels” value is “significant reduction” and the “hypothalamic RelA phosphorylation” value is “significantly increased”. Also, the “CSF TGF-β1 concentration relative to basal concentration” value in data set [2] (60 min post-injection) is reported as “roughly 2 fold”. The “blood TGF-β1 concentration” value in data set [2] (doses 0.5, 1.0, 4.0 ng in third ventricle) is on record as “None of these doses significantly increased”. Further, the “time of peak increase of CSF TGF-β1 concentration” value in data set [2] (post-injection, third ventricle, 0.5-4.0 ng, dose-dependent) came to 15 min.
